Data set [1] relates to MCF7. The settings on record: MCF7, ER+ breast cancer cells; Hu et al. 2018; cited from earlier work.
For data set [2], the system named is T47D. The settings on record: ER+ breast cancer cells, Hu et al. 2018; cited from earlier work.
The nature of data set [3]: Leaching (stability) test, protective effect of VTMS shell. In kind it is physicochemical. The settings on record: post-coating vs pre-coating B-805 particles; 1% SDS in water, sonicated 90 minutes. Here is the method:
Prior to the test, particles were dispersed in water for storage at varying concentrations. Amounts of fluid containing 50 mg of particles—a sample of pre-coating particles and a sample of post-coating particles—were weighed into 15 mL conical centrifuge tubes. The tubes were centrifuged to sediment the particles and supernatant was removed. 3 mL of 1% SDS in water was added to each tube, which were then vortexed to resuspend particles. The tubes containing the particles suspended in SDS solution were placed into a sonicated water bath for 90 minutes. The tubes were then removed and centrifuged to sediment the particles again. The supernatant was retained and filtered through a 0.2 μm syringe filter to remove any remaining particles. Absorption spectra of the supernatants was then measured on a Shimadzu 3600 UV/Vis/NIR spectrophotometer from 400-1300 nm. Molarity of colored components in the solutions and the percentage decrease of absorption between post-coating and pre-coating particles was calculated from the spectra.

Data set [4] deals with BT-20. The settings on record: BT-20, ER-PR-HER2- cells; Hu et al. 2018; cited from earlier work.
Data set [5] can be described thus: Laser triggered drug release from particles in gelatin. It counts as physicochemical. The settings on record: PMMA beads with 25% VTMS shells in gelatin; Q-switched Lutronic laser 1064 nm, 2.46-5.09 J/cm^2. Here is the method: Procedure: A solution of gelatin was prepared by adding Knox gelatin (1.0 g) to cold water (12.5 g) in a 100 mL glass jar equipped with a magnetic stir bar. The gelatin was stirred 15-30 minutes and then hot water was added (70° C.) until the total weight was 50.0 g. This gelatin was then used in 2.0 gm aliquots. Drug loaded PMMA beads with 25% VTMS shells as prepared in Example 1b above (20-30 mg) were then added to the gelatin solution (2.0 g) and vortexed mixed in a 4 dram vial. The suspension of the tattoo particles in gelatin was then sonicated for 15-30 minutes before transferring to a 5 cm plastic culture dish. The gelatin suspension was spread evenly and allowed to set. It was then covered and placed in a refrigerator a 6° C. until ready for laser exposure.
Laser exposure was accomplished as follows: The cover for the culture dish was removed and a 5 cm clear plastic cover was cut and fit over the gelatin to prevent splatter. The top surface was then completely lasered at 1064 nm with a 5 mm spot using fluences ranging from 2.46 J/cm^2 to 5.09 J/cm^2 using Q-switched Lutronic laser.
After lasering the top surface the culture dish was covered with its lid, turned over and lasered from the opposite side to reach any unexposed beads visible only from the bottom side.
The standard fluence for tattoo removal is 3.51 J/cm^2. […]

Data set [6] has as its system MDA-MD-468. The settings on record: MDA-MD-468, ER-PR-HER2- cells; Hu et al. 2018; cited from earlier work.
Data set [7] relates to MDA-MB-415. The settings on record: MDA-MB-415, ER+ breast cancer cells; Hu et al. 2018; cited from earlier work.
Data set [8] is described as follows: Percentage of curcumin and Epolight IR 1117 loading / encapsulation determination. It counts as physicochemical. The settings on record: in B-805 PMMA/BMA particles made by Example 13(b). As to the method: The UV-VIS-NIR absorbance spectrum of the IR absorbing agent and/or the drug is measured using Shimadzu UV-3600 UV-VIS-NIR Spectrophotometer. The concentration of the IR absorbing agent in the particles is determined from application of Beer's law.

For data set [9], the system named is MDA-MB-231. The settings on record: MDA-MB-231, ER-PR-HER2- cells; Hu et al. 2018; cited from earlier work.

What is called IC50 is the point on the concentration scale where inhibition reaches its midpoint. `COc1cc(/C=C/C(=O)CC(=O)/C=C/c2ccc(O)c(OC)c2)ccc1O` [Curcumin, curcumin]: the IC50 in data set [1] was 1.32 ± 0.06 µM; in data set [2], 2.07 ± 0.08 µM; in data set [4] it was 16.2 ± 2.16 µM; in data set [6] it was 18.6 ± 3.12 µM; in [7], 4.69 ± 0.06 µM; in [9], 11.3 ± 2.13 µM. Moreover, the “reduction of leaching by VTMS shell” value in data set [3] was 70%. Besides, the “curcumin released from the particles” value in [5] is “about 3 wt. %”. For the same compound, the measured encapsulation in data set [8] came to 78%.

The values above are taken from patent US20200390889A1, “REMOTELY TRIGGERED THERAPY” (Bambu Vault LLC, priority 2019, published 2020).
